# Measured values from patent US10350199B2, “3-(1h-pyrrolo[2,3-b]pyridin-2-yl)-1h-indazoles and therapeutic uses thereof” (Samumed, LLC, priority 2015, dated 2019).
# Experiments:
# Type in all cases: cell-based
# SW480 colon cancer cells = assay: Cell viability assay (CellTiter-Blue), SW480 cells, four days; conditions: Homo sapiens; for EC50: 96 h, SW480 cell viability, four days, CellTiter-Blue; for inhibition at 10 µM: SW480, read-out: percent inhibition at 10 μM
# Method in brief: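 Fluorescence from resazurin reduced to resorufin by metabolically active cells was the read-out, taken after ~3 h with CellTiter-Blue.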
# [1] = system: Wnt activity (Sp5-Luc reporter, SW480 colon carcinoma cells); assay: Wnt activity screening assay, Sp5-Luc reporter gene in SW480 cells; conditions: Homo sapiens; for inhibition at 10 µM: SW480, read-out: percent inhibition at 10 μM; for EC50: Sp5-Luc reporter, SW480 cells, overnight incubation
# Method in brief: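 Read-out is BrightGlo luminescence, normalized to DMSO-treated cells and fitted by four-parameter variable-slope regression for EC50. Reporter cells: SW480 colon carcinoma carrying a stable lentiviral Sp5-Luc construct with eight TCF/LEF sites, seeded 4,000/well in 1% FBS, incubated overnight at 37° C.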
# [2] = system: primary human mesenchymal stem cells (hMSCs); assay: Induction of chondrogenesis in human mesenchymal stem cells (nodule area, Rhodamine B/Nile Red); conditions: hMSC chondrogenesis; for Emax: relative to TGF-β3 (10 ng/mL) positive control, read-out: Max. Activity as % TGF-β3 activity; for EC50: concentration required to induce 50% levels of chondrogenesis of TGF-β3 positive control, read-out: Conc (nM) of 50% TGF-β3 activity
# Excerpt: Representative compounds were screened using primary human mesenchymal stem cells (hMSCs) to determine their ability to induce chondrogenesis (process by which cartilage is developed).
# Primary human mesenchymal stem cells (hMSCs) were purchased from Lonza (Walkersville, Md.) and expanded in Mesenchymal Stem Cell Growth Media (Lonza). Cells between passage 3 and 6 were used for the experiments.
# Area of nodules in each well was normalized to the average of 3 DMSO treated wells on the same plate using Excel (Microsoft Inc.). The normalized averages (fold change over DMSO) of 2 or 3 replicate wells for each compound concentration were calculated. Due to solubility limitations of some of the compounds, curve fitting was incomplete leading to inaccurate EC50 determinations.
# Using TGF-β3 as a positive control, the concentration of representative compounds required to induce 50% levels of chondrogenesis is reported. In addition, the maximum activity of each compound and the respective dose that each compound reached maximum chondrogenesis activity is reported.
# [3] = system: primary human fibroblasts derived from IPF patients (LL29 cells) treated with TGF-β1; assay: Inhibition of the fibrotic process: αSMA staining in TGF-β1 treated LL29 fibroblasts; conditions: Fibroblast; for EC50: 96 h, LL29 cells, TGF-β1 20 ng/mL, 4 days, % αSMA positive cells; for inhibition at 10 µM: read-out: percent inhibition at 10 μM
# Method in brief: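 Read-out after 4-day incubation: αSMA staining with 1 μM SYTOX green nuclear counterstain (30 min, room temperature). Cells were LL29 primary fibroblasts from IPF patients, in 1% FBS F12, exposed to TGF-β1 with test compound, referenced to TGF-β1/DMSO control wells.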
# [4] = system: IL-6 (THP-1 human monocyte cell line); assay: IL-6 inhibition in LPS-stimulated THP-1 cells (HTRF); conditions: for EC50: IL-6 inhibition, LPS-stimulated THP-1 cells, HTRF; for inhibition at 10 µM: THP-1, read-out: percentage in parentheses beside EC50 >10 (IL-6 inhibition)
# Method in brief: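 After 24 h in 1% FBS medium, cells had compound 2 h before 500 ng/mL LPS, then 22 h more at 37 °C. DMSO-normalized HTRF signal (665/620 nm ratio, anti-IL-6 antibody pair) was fitted with a variable-slope four-parameter model to give EC50.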
EC50 (SW480 colon cancer cells),EC50 [1],EC50 [4],EC50 [2],SMILES,inhibition at 10 µM (SW480 colon cancer cells),inhibition at 10 µM [1],Emax [2],EC50 [3],inhibition at 10 µM [3],inhibition at 10 µM [4]
> 10 µM,> 10 µM,0.561 µM,–,"CCNCc1cncc(-c2ccc3[nH]nc(-c4cc5c(-c6cccnc6)ccnc5[nH]4)c3c2)c1 [Compound 90, N-((5-(3-(4-(Pyridin-3-yl)-1H-pyrrolo[2,3-b]pyridin-2-yl)-1H-indazol-5-yl)pyridin-3-yl)methyl)ethanamine]",31.3%,28.6%,29%,> 10 µM,0%,–
> 10 µM,> 10 µM,0.409 µM,–,"CC(C)Nc1cncc(-c2ccc3[nH]nc(-c4cc5c(-c6cccnc6)ccnc5[nH]4)c3c2)c1 [Compound 96, N-Isopropyl-5-(3-(4-(pyridin-3-yl)-1H-pyrrolo[2,3-b]pyridin-2-yl)-1H-indazol-5-yl)pyridin-3-amine]",28.2%,38.9%,45%,> 10 µM,10%,–
> 10 µM,> 10 µM,> 10 µM,30 nM,"c1cncc(-c2ccnc3[nH]c(-c4n[nH]c5ccc(-c6cncc(CN7CCCCC7)c6)cc45)cc23)c1 [Compound 99, 5-(5-(Piperidin-1-ylmethyl)pyridin-3-yl)-3-(4-(pyridin-3-yl)-1H-pyrrolo[2,3-b]pyridin-2-yl)-1H-indazole]",50.6%,18.6%,62%,> 10 µM,4%,0%
> 10 µM,> 10 µM,> 10 µM,–,"O=C(Nc1cncc(-c2ccc3[nH]nc(-c4cc5c(-c6cccnc6)ccnc5[nH]4)c3c2)c1)C1CCCCC1 [Compound 107, N-(5-(3-(4-(Pyridin-3-yl)-1H-pyrrolo[2,3-b]pyridin-2-yl)-1H-indazol-5-yl)pyridin-3-yl)cyclohexanecarboxamide]",12%,10.6%,39%,> 10 µM,41.7%,34.4%
> 10 µM,0.523 µM,3.34 µM,–,"FC1(F)CCN(Cc2cncc(-c3ccc4[nH]nc(-c5cc6c(-c7cccnc7)ccnc6[nH]5)c4c3)c2)C1 [Compound 110, 5-(5-((3,3-Difluoropyrrolidin-1-yl)methyl)pyridin-3-yl)-3-(4-(pyridin-3-yl)-1H-pyrrolo[2,3-b]pyridin-2-yl)-1H-indazole]",51.8%,–,20%,0.095 µM,–,–
> 10 µM,> 10 µM,> 10 µM,–,"Cc1ccncc1-c1ccc2[nH]nc(-c3cc4c(-c5ccncc5)ccnc4[nH]3)c2c1 [Compound 117, 5-(4-Methylpyridin-3-yl)-3-(4-(pyridin-4-yl)-1H-pyrrolo[2,3-b]pyridin-2-yl)-1H-indazole]",4.6%,31.8%,44%,> 10 µM,44.2%,31.5%
> 10 µM,> 10 µM,> 10 µM,–,"CC(C)(C)C(=O)Nc1cncc(-c2ccc3[nH]nc(-c4cc5c(-c6ccncc6)ccnc5[nH]4)c3c2)c1 [Compound 120, N-(5-(3-(4-(Pyridin-4-yl)-1H-pyrrolo[2,3-b]pyridin-2-yl)-1H-indazol-5-yl)pyridin-3-yl)pivalamide]",10.7%,36.6%,44%,> 10 µM,12.8%,35.6%
> 10 µM,> 10 µM,> 10 µM,–,"O=C(Nc1cncc(-c2ccc3[nH]nc(-c4cc5c(-c6ccncc6)ccnc5[nH]4)c3c2)c1)c1ccccc1 [Compound 123, N-(5-(3-(4-(Pyridin-4-yl)-1H-pyrrolo[2,3-b]pyridin-2-yl)-1H-indazol-5-yl)pyridin-3-yl)benzamide]",7.2%,17.3%,19%,> 10 µM,49.2%,20.6%
> 10 µM,> 10 µM,> 10 µM,–,"CN(C)Cc1cncc(-c2ccc3[nH]nc(-c4cc5c(-c6ccncc6)ccnc5[nH]4)c3c2)c1 [Compound 125, N,N-Dimethyl-1-(5-(3-(4-(pyridin-4-yl)-1H-pyrrolo[2,3-b]pyridin-2-yl)-1H-indazol-5-yl)pyridin-3-yl)methanamine]",7.4%,29.7%,37%,> 10 µM,0%,49.7%
> 10 µM,> 10 µM,> 10 µM,–,"CCCCC(=O)Nc1cncc(-c2ccc3[nH]nc(-c4cc5c(-c6ccncc6)ccnc5[nH]4)c3c2)c1 [Compound 131, N-(5-(3-(4-(Pyridin-4-yl)-1H-pyrrolo[2,3-b]pyridin-2-yl)-1H-indazol-5-yl)pyridin-3-yl)pentanamide]",10.6%,16.7%,18%,> 10 µM,6.3%,31.5%
> 10 µM,> 10 µM,> 10 µM,900 nM,"O=C(Nc1cncc(-c2ccc3[nH]nc(-c4cc5c(-c6ccncc6)ccnc5[nH]4)c3c2)c1)C1CCC1 [Compound 133, N-(5-(3-(4-(Pyridin-4-yl)-1H-pyrrolo[2,3-b]pyridin-2-yl)-1H-indazol-5-yl)pyridin-3-yl)cyclobutanecarboxamide]",6.4%,2.8%,73%,> 10 µM,0%,33.3%
> 10 µM,> 10 µM,> 10 µM,–,"c1cc(-c2ccnc3[nH]c(-c4n[nH]c5ccc(-c6cncnc6)cc45)cc23)ccn1 [Compound 139, 3-(4-(Pyridin-4-yl)-1H-pyrrolo[2,3-b]pyridin-2-yl)-5-(pyrimidin-5-yl)-1H-indazole]",5.3%,7.5%,17%,> 10 µM,14.5%,43.1%
0.089 µM,0.022 µM,0.083 µM,–,"Nc1cncc(-c2ccc3[nH]nc(-c4cc5c(-c6ccccn6)ccnc5[nH]4)c3c2)c1 [Compound 143, 5-(3-(4-(Pyridin-2-yl)-1H-pyrrolo[2,3-b]pyridin-2-yl)-1H-indazol-5-yl) pyridin-3-amine]",–,–,46%,0.045 µM,–,–
> 10 µM,> 10 µM,> 10 µM,10 nM,"CN(C)c1cncc(-c2ccc3[nH]nc(-c4cc5c(-c6ccccn6)ccnc5[nH]4)c3c2)c1 [Compound 147, N,N-Dimethyl-5-(3-(4-(pyridin-2-yl)-1H-pyrrolo[2,3-b]pyridin-2-yl)-1H-indazol-5-yl)pyridin-3-amine]",15.4%,13.7%,77%,> 10 µM,34%,30.5%
1.23 µM,0.604 µM,0.622 µM,30 nM,"Nc1cncc(-c2ccc3[nH]nc(-c4cc5c(N6CCCCC6)ccnc5[nH]4)c3c2)c1 [Compound 171, 5-(3-(4-(Piperidin-1-yl)-1H-pyrrolo[2,3-b]pyridin-2-yl)-1H-indazol-5-yl) pyridin-3-amine]",–,–,130%,1.72 µM,–,–
> 10 µM,> 10 µM,> 10 µM,2700 nM,"c1cncc(-c2ccc3[nH]nc(-c4cc5c(N6CCCCC6)ccnc5[nH]4)c3c2)c1 [Compound 172, 3-(4-(Piperidin-1-yl)-1H-pyrrolo[2,3-b]pyridin-2-yl)-5-(pyridin-3-yl)-1H-indazole]",8.9%,48.2%,162%,> 10 µM,25.1%,31.8%
